Test results: patent US10266497B2 (ABIDE THERAPEUTICS, INC., priority 2017, dated 2019)

Key:
MAGL [1] = biological target: T1, MAGL (Mus musculus, UniProt O35678); experiment: In vitro competitive activity-based protein profiling, MAGL, mouse; conditions: read-out: MAGL % inh. 1 μM (mouse)
T1 sequence (O35678 1-303): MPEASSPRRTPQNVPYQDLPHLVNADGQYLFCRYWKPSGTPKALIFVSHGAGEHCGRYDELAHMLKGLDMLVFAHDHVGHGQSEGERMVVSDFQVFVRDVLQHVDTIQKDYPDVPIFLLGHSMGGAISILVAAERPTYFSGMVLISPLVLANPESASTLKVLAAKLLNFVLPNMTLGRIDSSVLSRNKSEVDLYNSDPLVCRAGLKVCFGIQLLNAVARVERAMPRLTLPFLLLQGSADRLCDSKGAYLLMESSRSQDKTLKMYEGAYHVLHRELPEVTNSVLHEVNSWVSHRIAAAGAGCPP

FAAH [2] = biological target: T2, FAAH (Homo sapiens, UniProt O00519); experiment: In vitro competitive activity-based protein profiling, FAAH, human; conditions: for inhibition at 1 µM: read-out: FAAH % inh. 1 μM (human); for inhibition at 10 µM: read-out: FAAH % inh. (human) at 10 uM
T2 sequence (O00519 1-579): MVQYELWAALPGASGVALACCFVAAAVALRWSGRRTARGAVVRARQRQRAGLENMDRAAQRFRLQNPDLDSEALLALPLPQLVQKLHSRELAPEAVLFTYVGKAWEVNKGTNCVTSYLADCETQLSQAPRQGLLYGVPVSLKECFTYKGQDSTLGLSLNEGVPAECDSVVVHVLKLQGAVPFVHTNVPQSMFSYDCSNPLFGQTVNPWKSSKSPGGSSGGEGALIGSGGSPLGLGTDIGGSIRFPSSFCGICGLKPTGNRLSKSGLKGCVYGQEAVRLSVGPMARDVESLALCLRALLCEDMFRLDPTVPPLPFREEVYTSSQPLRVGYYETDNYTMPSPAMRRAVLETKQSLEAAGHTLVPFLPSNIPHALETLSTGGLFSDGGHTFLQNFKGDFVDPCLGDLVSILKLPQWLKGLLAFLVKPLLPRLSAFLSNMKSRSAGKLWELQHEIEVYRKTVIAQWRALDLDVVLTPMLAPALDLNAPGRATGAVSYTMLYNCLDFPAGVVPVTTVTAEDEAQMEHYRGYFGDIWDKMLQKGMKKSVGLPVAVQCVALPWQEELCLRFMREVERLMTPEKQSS

FAAH [3] = biological target: T3, FAAH (Mus musculus, UniProt O08914); experiment: In vitro competitive activity-based protein profiling, FAAH, mouse; conditions: read-out: FAAH % inh. 1 μM (mouse)
T3 sequence (O08914 1-579): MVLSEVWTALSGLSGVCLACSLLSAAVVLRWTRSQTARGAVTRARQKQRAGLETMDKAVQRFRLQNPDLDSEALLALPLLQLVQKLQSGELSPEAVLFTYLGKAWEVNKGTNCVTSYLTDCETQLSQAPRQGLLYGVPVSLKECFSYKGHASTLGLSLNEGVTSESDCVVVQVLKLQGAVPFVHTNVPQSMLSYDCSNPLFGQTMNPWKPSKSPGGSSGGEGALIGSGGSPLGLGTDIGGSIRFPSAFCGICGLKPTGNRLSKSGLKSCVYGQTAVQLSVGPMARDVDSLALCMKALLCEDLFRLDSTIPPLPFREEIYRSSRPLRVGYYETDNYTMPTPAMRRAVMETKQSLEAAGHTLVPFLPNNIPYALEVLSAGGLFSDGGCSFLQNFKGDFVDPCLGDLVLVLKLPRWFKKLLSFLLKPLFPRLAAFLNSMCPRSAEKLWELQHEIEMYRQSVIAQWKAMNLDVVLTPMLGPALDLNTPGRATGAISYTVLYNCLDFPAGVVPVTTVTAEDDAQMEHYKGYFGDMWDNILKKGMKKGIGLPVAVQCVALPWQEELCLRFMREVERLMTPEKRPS

MAGL [4] = biological target: T4, MAGL (Homo sapiens, UniProt Q99685); experiment: In vitro competitive activity-based protein profiling, MAGL, human; conditions: for inhibition at 1 µM: read-out: MAGL % inh. 1 μM (human); for inhibition at 10 µM: read-out: MAGL % inh. (human) at 10 uM
T4 sequence (Q99685 1-303): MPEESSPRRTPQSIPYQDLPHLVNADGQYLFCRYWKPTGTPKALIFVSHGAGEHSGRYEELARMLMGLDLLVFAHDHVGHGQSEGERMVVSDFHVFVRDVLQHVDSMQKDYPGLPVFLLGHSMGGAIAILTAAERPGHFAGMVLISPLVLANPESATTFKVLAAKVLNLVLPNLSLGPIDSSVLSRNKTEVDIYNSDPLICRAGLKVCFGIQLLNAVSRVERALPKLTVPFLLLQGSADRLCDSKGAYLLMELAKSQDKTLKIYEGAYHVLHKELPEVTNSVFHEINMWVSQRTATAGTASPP

Structure (SMILES) | inhibition at 1 µM (MAGL [1]) [%] | inhibition at 1 µM (FAAH [2]) [%] | inhibition at 1 µM (FAAH [3]) [%] | inhibition at 1 µM (MAGL [4]) [%] | IC50 (FAAH [2]) [nM] | inhibition at 10 µM (FAAH [2]) [%] | inhibition at 10 µM (MAGL [4]) [%]
CN(Cc1cc(Cl)ccc1C(F)(F)F)C1CCN(C(=O)n2ccc(C(=O)O)n2)CC1 [Example 81, 1-(4-((5-chloro-2-(trifluoromethyl)benzyl)(methyl)amino)piperidine-1-carbonyl)-1H-pyrazole-3-carboxylic acid] | > 75 | 50 to 75 | 0 to 25 | > 75 | 100 to 1000 | – | –
O=C(O)c1ccn(C(=O)N2CCC3(CCN(Cc4ccc(C(F)(F)F)cc4N4CCC(F)CC4)CC3)C2)n1 [Example 186, 1-(8-(2-(4-fluoropiperidin-1-yl)-4-(trifluoromethyl)benzyl)-2,8-diazaspiro[4.5]decane-2-carbonyl)-1H-pyrazole-3-carboxylic acid] | > 75 | 0 to 25 | 0 to 25 | 50 to 75 | – | – | –
O=C(O)c1ccn(C(=O)N2CCN(Cc3ccc(Cl)cc3-c3nnco3)CC2)n1 [Example 67, 1-(4-(4-chloro-2-(1,3,4-oxadiazol-2-yl)benzyl)piperazine-1-carbonyl)-1H-pyrazole-3-carboxylic acid] | > 75 | 0 to 25 | 0 to 25 | > 75 | – | – | –
O=C(O)c1ccn(C(=O)N2CCC3(CCN(Cc4cc(F)cc(F)c4)C3)CC2)n1 [Example 79, 1-(2-(3,5-difluorobenzyl)-2,8-diazaspiro[4.5]decane-8-carbonyl)-1H-pyrazole-3-carboxylic acid] | 0 to 25 | – | 0 to 25 | – | – | 50 to 75 | > 75
NC(=O)c1ccn(C(=O)N2CC3CN(Cc4ccc(C(F)(F)F)cc4)CC3C2)n1 (centres unmarked) [Example 182, 1-(5-(4-(trifluoromethyl)benzyl)octahydro-pyrrolo[3,4-c]pyrrole-2-carbonyl)-1H-pyrazole-3-carboxamide] | > 75 | > 75 | > 75 | > 75 | – | – | –
Cc1ccc(CN2CCN(C(=O)n3ccc(C(=O)O)n3)CC2)c(-c2nnco2)c1 [Example 66, 1-(4-(4-methyl-2-(1,3,4-oxadiazol-2-yl)benzyl)piperazine-1-carbonyl)-1H-pyrazole-3-carboxylic acid] | > 75 | 0 to 25 | 0 to 25 | > 75 | – | – | –
C[C@@H]1CCCCN1c1cc(C(F)(F)F)ccc1CN1CCN(C(=O)n2ccc(C(=O)O)n2)CC1 [Example 103, (R)-1-(4-(2-(2-methylpiperidin-1-yl)-4-(trifluoromethyl)benzyl)piperazine-1-carbonyl)-1H-pyrazole-3-carboxylic acid] | > 75 | 0 to 25 | 0 to 25 | > 75 | – | – | –
O=C(O)c1nn(C(=O)N2CCC3(CCN(Cc4ccc(N5CCCC5)cc4C(F)(F)F)C3)CC2)cc1C(F)(F)F [Example 150, 1-(2-(4-(pyrrolidin-1-yl)-2-(trifluoromethyl)benzyl)-2,8-diazaspiro[4.5]decane-8-carbonyl)-4-(trifluoromethyl)-1H-pyrazole-3-carboxylic acid] | 25 to 50 | 50 to 75 | > 75 | 25 to 50 | – | – | –
O=C(O)c1ccn(C(=O)N2CCC(NCc3cccc(Oc4ccc(Cl)cc4)c3)CC2)n1 [Example 190, 1-(4-((3-(4-chlorophenoxy)benzyl)amino)piper-idine-1-carbonyl)-1H-pyrazole-3-carboxylic acid] | 0 to 25 | 25 to 50 | 50 to 75 | 25 to 50 | – | – | –
O=C(O)c1ccn(C(=O)N2CCC3(CCN(Cc4cc(F)cc(Cl)c4)C3)CC2)n1 [Example 70, 1-(2-(3-chloro-5-fluorobenzyl)-2,8-diazaspiro[4.5]decane-8-carbonyl)-1H-pyrazole-3-carboxylic acid] | 0 to 25 | 50 to 75 | 0 to 25 | 25 to 50 | – | – | –

The next lines start with the values.

inhibition at 1 µM (MAGL [1]) [%] | inhibition at 1 µM (FAAH [2]) [%] | inhibition at 1 µM (FAAH [3]) [%] | inhibition at 1 µM (MAGL [4]) [%] | IC50 (FAAH [2]) [nM] | inhibition at 10 µM (FAAH [2]) [%] | inhibition at 10 µM (MAGL [4]) [%] | Structure (SMILES)
> 75 | > 75 | > 75 | > 75 | – | – | – | O=C(O)c1ccn(C(=O)N2CCN(Cc3cc(F)cc(Oc4ccc(Cl)cc4)c3)CC2)n1 [Example 161, 1-(4-(3-(4-chlorophenoxy)-5-fluorobenzyl)pipera-zine-1-carbonyl)-1H-pyrazole-3-carboxylic acid]
0 to 25 | – | 0 to 25 | – | – | > 75 | > 75 | C#Cc1ccc(CN2CCN(C(=O)n3ccc(C(=O)O)n3)CC2)cc1 [Example 50, 1-(4-(4-ethynylbenzyl)piper-azine-1-carbonyl)-1H-pyrazole-3-carboxylic acid]
> 75 | 0 to 25 | 0 to 25 | > 75 | – | – | – | O=C(O)c1ccn(C(=O)N2CCN(Cc3ccc(OC(F)(F)F)cc3-c3nnco3)CC2)n1 [Example 68, 1-(4-(2-(1,3,4-oxadiazol-2-yl)-4-(trifluoromethoxy)benzyl)piperazine-1-carbonyl)-1H-pyrazole-3-carboxylic acid]
25 to 50 | 0 to 25 | 0 to 25 | 50 to 75 | – | – | – | O=C(O)c1ccn(C(=O)N2CCN(Cc3cccc(Oc4cccnc4)c3)CC2)n1 [Example 18, 1-(4-(3-(Pyridin-3-yloxy)benzyl)piperazine-1-carbonyl)-1H-pyrazole-3-carboxylic Acid]
> 75 | 0 to 25 | 0 to 25 | > 75 | – | – | – | O=C(O)c1ccn(C(=O)N2CCN(Cc3ccc(C(F)(F)F)c(-c4nnco4)c3)CC2)n1 [Example 9, 1-(4-(3-(1,3,4-oxadiazol-2-yl)-4-(trifluoromethyl)benzyl)piperazine-1-carbonyl)-1H-pyrazole-3-carboxylic Acid]
> 75 | 25 to 50 | 0 to 25 | > 75 | – | – | – | O=C(O)c1ccn(C(=O)N2CCN(Cc3ccc(C(F)(F)F)cc3N3CCC(F)CC3)CC2)n1 [Example 102, 1-(4-(2-(4-fluoropiperidin-1-yl)-4-(trifluoromethyl)benzyl)piperazine-1-carbonyl)-1H-pyrazole-3-carboxylic acid]
> 75 | > 75 | > 75 | > 75 | 100 to 1000 | – | – | O=C(O)c1ccn(C(=O)N2CCN(Cc3cccc(Oc4ccc(C(F)(F)F)cn4)c3)CC2)n1 [Example 61, 1-(4-(3-((5-(trifluoromethyl)pyridin-2-yl)oxy)benzyl)piper-azine-1-carbonyl)-1H-pyrazole-3-carboxylic acid]
50 to 75 | – | 0 to 25 | 25 to 50 | – | > 75 | – | O=C(O)c1ccn(C(=O)N2CCN(Cc3ccc(Cl)cc3)CC2)n1 [Example 1, 1-(4-(4-chlorobenzyl)piperazine-1-carbonyl)-1H-pyrazole-3-carboxylic Acid]
